Tests used:
Assay in all cases: relative viability (nuclei count vs DMSO), 5 days (fraction); higher = more cells survive
[1] = compound: Cc1ccc(C(=O)N(CCCN)[C@@H](c2nc3cc(Cl)ccc3c(=O)n2Cc2ccccc2)C(C)C)cc1 [Ispinesib] + N=C(N)NC(=N)NCCc1ccccc1 [Phenformin] (partner 250 µM)
In short: (§1)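 For relative viability, nuclei counts in treated wells were divided by those in vehicle wells. Lung cancer cell lines had been pin-tool dosed in 1536-well plates the day after seeding and cultured for 5 days, then fixed and stained in one step (final 0.05% Triton X-100, 1% formaldehyde, 1 ug/ml Hoechst) and imaged at 4×. Doses were one drug alone or a fixed anchor-drug dose plus five library-drug doses (not always all listed) in √10 steps, and values are duplicate-plate medians.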

[2] = compound: Cc1ccc(C(=O)N(CCCN)[C@@H](c2nc3cc(Cl)ccc3c(=O)n2Cc2ccccc2)C(C)C)cc1 [Ispinesib] + CC(=O)Nc1cccc(-n2c(=O)n(C3CC3)c(=O)c3c(Nc4ccc(I)cc4F)n(C)c(=O)c(C)c32)c1 [Trametinib] (partner 0.02 µM)
In short: as §1

[3] = compound: C[C@]1(O)C[C@@H](c2nc(-c3ccc4ccc(-c5ccccc5)nc4c3)c3c(N)nccn32)C1 [Linsitinib] + COc1cc2c(Oc3ccc(NC(=O)C4(C(=O)Nc5ccc(F)cc5)CC4)cc3F)ccnc2cc1OCCCN1CCOCC1 [Foretinib] (partner 0.25 µM)
In short: as §1

[4] = compound: C[C@]1(O)C[C@@H](c2nc(-c3ccc4ccc(-c5ccccc5)nc4c3)c3c(N)nccn32)C1 [Linsitinib] + O=C(c1cc(Cc2n[nH]c(=O)c3ccccc23)ccc1F)N1CCN(C(=O)C2CC2)CC1 [Olaparib] (partner 8 µM)
In short: as §1

Cell Line: UMC-11
- relative viability ([1]; first compound 0.001 µM): 0.346
- relative viability ([1]; first compound 0.003162 µM): 0.327
- relative viability ([1]; first compound 0.01 µM): 0.286
- relative viability ([1]; first compound 0.03162 µM): 0.179
- relative viability ([1]; first compound 0.1 µM): 0.193
- relative viability ([2]; first compound 0.001 µM): 0.685
- relative viability ([2]; first compound 0.003162 µM): 0.701
- relative viability ([2]; first compound 0.01 µM): 0.495
- relative viability ([2]; first compound 0.03162 µM): 0.238
- relative viability ([2]; first compound 0.1 µM): 0.309
- relative viability ([3]; first compound 0.01 µM): 0.976
- relative viability ([3]; first compound 0.03162 µM): 0.89
- relative viability ([3]; first compound 0.1 µM): 1.03
- relative viability ([3]; first compound 1 µM): 1.02
- relative viability ([4]; first compound 0.01 µM): 0.361
- relative viability ([4]; first compound 0.03162 µM): 0.352
- relative viability ([4]; first compound 0.1 µM): 0.421
- relative viability ([4]; first compound 0.3162 µM): 0.273
- relative viability ([4]; first compound 1 µM): 0.329

From the supplement of paper PMC10307832
